This note sets out measurements from PubChem BioAssay (NCI).

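The compound was tested at five concentrations on cells cultured in 96-well plates, with a 48-hour exposure period. The concentration for full growth arrest is given as TGI.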 Where a SMILES comes first, the peptide text is derived from it. Side-chain parts run from the residue outwards. The star is where a group is joined. Cbz = O=C(OCc1ccccc1)*; Boc = CC(C)(C)OC(=O)*

What all share (assay): NCI tumour cell line growth inhibition, 48 h
In experiment [1] the test system is OVCAR-5 ovarian.
Experiment [2] has as its system SNB-19 CNS.
In experiment [3] the test system is IGROV1 ovarian.
The subject of experiment [4] is SK-OV-3 ovarian.
Experiment [5] concerns MDA-MB-231 breast.
Experiment [6] concerns K-562 leukemia.
In experiment [7] the test system is MDA-MB-435.
For experiment [8], the system named is UACC-62 melanoma.
In experiment [9] the test system is HCC-2998 colon.
Experiment [10] deals with LOX IMVI melanoma.
In experiment [11] the test system is A549 NSCLC.
Experiment [12] deals with NCI-H226 lung.
Experiment [13] has as its system A498 renal.

As to `OC1NC2CC3NC(O)C(O)NC3CC2NC1O` (stereo not drawn), the TGI in experiment [1], in experiment [2], in [3], in experiment [4], in experiment [5] and in experiment [6] was above 100 µM in each case. For the same compound, the TGI in experiment [7], in experiment [8], in experiment [9], in experiment [10], in experiment [11] and in [12] was above 100 µM throughout.

With `CCC(=O)n1c(=O)n(-c2ccc([N+](=O)[O-])cc2)c(=O)n1C(=O)CC`, the TGI in [1], in [2], in experiment [3], in [4], in [5] and in [6] was above 100 µM throughout. Moreover, the TGI in experiment [7], in experiment [8], in experiment [9], in experiment [10], in [11] and in experiment [12] was above 100 µM each time.

Take `COc1cc(C(c2cc(OC)c(OC)c(OC)c2)N2C(=O)CCC2C(=O)O)cc(OC)c1OC` (stereo not drawn): the TGI in [13], in [1], in experiment [2], in experiment [3], in experiment [4] and in experiment [5] was above 100 µM throughout. In addition, the TGI in experiment [6], in experiment [7], in experiment [8], in [11] and in experiment [12] was above 100 µM throughout.

For the compound `CCC(c1nc2ccccc2c(=O)n1NC(=O)C(C)(C)C)C1(O)CCCCC1` (stereo not drawn), the TGI in experiment [13], in experiment [1], in [2], in experiment [3], in experiment [4] and in experiment [5] was above 100 µM throughout. Moreover, the TGI in experiment [6], in experiment [7], in experiment [8], in experiment [11] and in experiment [12] was above 100 µM each time.

Take `Cc1ccc(C(=O)/C=C/N2CCN(c3cccc(C(F)(F)F)c3)CC2)cc1`: the TGI in experiment [13] is 33.3 µM; in experiment [1], 39.1 µM; in experiment [2] it was above 100 µM; in experiment [3], 31.4 µM; in [4], 95.5 µM; in experiment [5] it was 33.4 µM. Moreover, the TGI is 49.1 µM in experiment [6]; 32.4 µM in experiment [7]; 34.8 µM in experiment [8]; 25.5 µM in experiment [9]; 53.6 µM in experiment [11]; 38.9 µM in experiment [12].

With `COC(=O)C(Cc1ccccc1)NC(=O)C(CCCN=C(N)N)NC(=O)OCc1ccccc1` (stereo not drawn), the TGI in experiment [1], in experiment [2], in [3], in experiment [4], in [5] and in experiment [6] was above 100 µM in each case. In addition, the TGI in [7], in experiment [8], in experiment [9], in experiment [10], in experiment [11] and in [12] was above 100 µM each time.

With `CC1(C)N=C(/C(C#N)=[N+](/[O-])C(=O)c2ccccc2)C(C)(C)N1O`, the TGI in experiment [1], in [2], in experiment [3], in experiment [4], in experiment [5] and in experiment [6] was above 100 µM in each case. The TGI in experiment [7], in experiment [8], in [9], in experiment [10], in [11] and in experiment [12] was above 100 µM each time.

`CN(C)C(=O)CO/N=C1/C(c2c(O)[nH]c3ccccc23)=Nc2ccccc21`: the TGI in experiment [1], in experiment [2], in [3], in [4], in experiment [5] and in experiment [6] was above 100 µM in each case. The TGI in experiment [7], in experiment [8], in experiment [9], in experiment [10], in experiment [11] and in [12] was above 100 µM throughout.

For `CCCCCCCCCCOC1C(C(C)OCCCN(C)C)OC2OC3(CCCCC3)OC21` (stereo not drawn), the TGI in experiment [1] was found to be 25.2 µM; in experiment [2], 25.5 µM; in [3], 28.1 µM; in experiment [4], 32.7 µM; in experiment [5] it was 29.8 µM; in [6], 12.6 µM. In addition, the TGI in experiment [7] was 30.3 µM; in experiment [8], 26.2 µM; in [9], 29.3 µM; in [10] it was 10.7 µM; in experiment [11], 30.8 µM; in [12], 38.1 µM.

As to `CC(C)CC(NC(=O)OCc1ccccc1)C(=O)NCCCCC(NC(=O)C(CCCCNC(=O)C(CC(C)C)NC(=O)OCc1ccccc1)NC(=O)C(CCCCNC(=O)C(CC(C)C)NC(=O)OCc1ccccc1)NC(=O)C(CCCCNC(=O)C(CC(C)C)NC(=O)OCc1ccccc1)NC(=O)OC(C)(C)C)C(=O)O` (stereo not drawn) (Boc-K([Leu-Cbz])K([Leu-Cbz])K([Leu-Cbz])K([Leu-Cbz])-OH; configuration not given here), the TGI in experiment [13], in [1], in experiment [2], in experiment [3], in experiment [5] and in experiment [6] was above 25 µM each time. Also, the TGI in experiment [7], in [8], in experiment [9], in experiment [10], in experiment [11] and in [12] was above 25 µM throughout.

For `CCC(C)N1CN(c2ccccc2)C2(CCN(CCCC(=O)c3ccc(F)cc3)CC2)C1=O` (stereo not drawn), the TGI is 16.8 µM in experiment [13]; 8.12 µM in experiment [1]; 18.7 µM in experiment [3]; 21.5 µM in [4]; 23.1 µM in [5]; above 100 µM in experiment [6]. The TGI in experiment [7] was 27.5 µM; in [8], 32.9 µM; in experiment [10], 10.8 µM; in experiment [11], 20.4 µM.
